# Measured values from PubChem BioAssay (NCI).
#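 Assay format: 96-well plates, 48-hour exposure. TGI: concentration producing complete growth inhibition.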
# What was measured:
# Experiment in all cases: NCI tumour cell line growth inhibition, 48 h
# SF-295 CNS = test system: SF-295 CNS
# A498 renal = test system: A498 renal
# SW-620 colon = test system: SW-620 colon
# UACC-257 melanoma = test system: UACC-257 melanoma
# SNB-78 CNS = test system: SNB-78 CNS
# LXFL 529 NSCLC = test system: LXFL 529 NSCLC
# DMS 114 small cell lung = test system: DMS 114 small cell lung
# DLD-1 colon = test system: DLD-1 colon
# HOP-18 NSCLC = test system: HOP-18 NSCLC
# DMS 273 small cell lung = test system: DMS 273 small cell lung
# M19-MEL melanoma = test system: M19-MEL melanoma
Compound,TGI (SF-295 CNS),TGI (A498 renal),TGI (SW-620 colon),TGI (UACC-257 melanoma),TGI (SNB-78 CNS),TGI (LXFL 529 NSCLC),TGI (DMS 114 small cell lung),TGI (DLD-1 colon),TGI (HOP-18 NSCLC),TGI (DMS 273 small cell lung),TGI (M19-MEL melanoma)
COc1cccc(CCNc2c(C#N)c3nc4ccccc4n3c3ccccc23)c1,> 100 µM,> 26.2 µM,> 100 µM,> 100 µM,,,,,,,
CCN1C(=O)/C(=C2\SC(c3ccccc3)(c3ccccc3)c3ccccc32)SC1=S,> 100 µM,> 100 µM,,> 100 µM,,,,,,,
N#CCCN(CCC#N)c1ccc(C(N=Nc2ccccc2)=Nc2ccc(Cl)cc2)cc1,> 100 µM,> 100 µM,> 100 µM,> 100 µM,,,,,,,
Cc1cc(=O)[nH]c2cc(NC(=O)C(CCCN=C(N)N)NC(=O)OCc3ccccc3)ccc12 (stereo unspecified),> 100 µM,> 100 µM,> 100 µM,> 100 µM,,,,,,,
CCOC(=O)C(=[N+]=[N-])C(=O)CN1C(=O)C2CC(C)=C(C)CC2C1O (stereo unspecified),> 100 µM,,> 100 µM,> 100 µM,,,,,,,
CCOC(=O)C1=c2[nH]c3cccc4cccc(c43)n2C(=O)CC1c1ccccc1 (stereo unspecified),> 100 µM,> 100 µM,> 100 µM,> 100 µM,,,,,,,
C[N+](C)(C)/N=C/c1ccc(O)c(O)c1,> 100 µM,> 100 µM,> 100 µM,> 100 µM,,,,,,,
Cc1ccc(C2SCC(=O)N2c2ccc(-c3ccc(-n4c(-c5ccccc5)nc5ccccc5c4=O)cc3)cc2)cc1 (stereo unspecified),> 100 µM,> 100 µM,> 100 µM,> 100 µM,,,,,,,
CSc1cc(Br)ccc1-n1c(C(=O)c2ccccc2)c(SC)n(-c2ccccc2)c1=O,> 100 µM,,> 100 µM,> 100 µM,,,,,,,
CSc1c(C(=O)Nc2ccc(C)cc2)c(N)n(N)c(=O)c1C#N,,> 100 µM,> 100 µM,> 100 µM,,,,,,,
O=c1oc2ccccc2c(O)c1/C=N/C(=S)NCc1ccccc1,> 100 µM,,> 100 µM,> 100 µM,,,,,,,
COc1cc(OC)c2c(=O)c(OC)c(-c3ccc4c(c3)OCO4)oc2c1OC,> 100 µM,> 100 µM,> 100 µM,> 100 µM,,,,,,,
CC(Oc1ccc(OCC2CCCCC2)cc1)C(=O)NCCO (stereo unspecified),> 100 µM,> 100 µM,,> 100 µM,> 100 µM,> 100 µM,> 100 µM,> 100 µM,> 100 µM,> 100 µM,> 100 µM
COC1(OC)N=C(N)C2(C#N)C3(C(=O)N(C(C)C)N=C3C)C12C#N (stereo unspecified),> 100 µM,> 100 µM,> 100 µM,> 100 µM,,,,,,,
CN1C(=O)C(C(N)=O)C2CC1(C)Oc1ccccc12 (stereo unspecified),,> 100 µM,> 100 µM,> 100 µM,,,,,,,
O=C(NNC(=S)Nc1ccc(Br)cc1)c1cc(-c2ccccc2)nc2ccccc12,38.3 µM,28.6 µM,46.9 µM,61.4 µM,,,,,,,
O=c1c(C2=NCCC2)c(-c2ccc[nH]2)[nH]n1-c1ccccc1,> 100 µM,> 100 µM,> 100 µM,> 100 µM,,,,,,,
Cc1c(-c2ccccc2)c(C#N)c2nnn(C3CCCCC3)c(=O)n12,> 100 µM,> 100 µM,> 100 µM,> 100 µM,,,,,,,

Compound,TGI (SF-295 CNS),TGI (A498 renal),TGI (SW-620 colon),TGI (UACC-257 melanoma),TGI (SNB-78 CNS),TGI (LXFL 529 NSCLC),TGI (DMS 114 small cell lung),TGI (DLD-1 colon),TGI (HOP-18 NSCLC),TGI (DMS 273 small cell lung),TGI (M19-MEL melanoma)
COC(=O)C(Cc1ccccc1)NP(=O)(O)OCC1OC(n2cc(I)c(=O)[nH]c2=O)CC1O (stereo unspecified),> 100 µM,> 100 µM,> 100 µM,> 100 µM,,,,,,,
O=C(CC(C(=O)c1cccs1)c1cccs1)c1ccccc1Cl (stereo unspecified),> 100 µM,> 100 µM,> 100 µM,> 100 µM,,,,,,,
COc1cc(CNC2=NCCC2)cc(OC)c1OC,> 100 µM,,> 100 µM,> 100 µM,,,,,,,
CC(C)(C)OC(=O)NCCC(=O)NC1(c2cc3ccccc3s2)CCCCC1,36.5 µM,45.4 µM,41.1 µM,39 µM,,,,,,,
O=c1c2ccccc2nc2n1C(c1ccc([N+](=O)[O-])cc1)C2(c1ccccc1)c1ccccc1 (stereo unspecified),> 100 µM,> 100 µM,> 100 µM,> 100 µM,,,,,,,
O=C(O)CC1NC(/C(=C/c2ccccc2O)NC(=O)c2ccccc2)OC1=O (stereo unspecified),> 95.7 µM,> 100 µM,> 100 µM,> 100 µM,,,,,,,
COC(CC1(/C=C/O[Si](C(C)C)(C(C)C)C(C)C)C(=O)N(COCC[Si](C)(C)C)c2ccccc21)OC (stereo unspecified),22.5 µM,> 100 µM,> 100 µM,> 100 µM,,,,,,,
COC(=O)C(C(=O)C(=O)Nc1ccccc1C#N)c1nc2ccc([N+](=O)[O-])cc2[nH]c1=O (stereo unspecified),> 100 µM,,> 100 µM,> 100 µM,,,,,,,
O=C1C(Cl)C2(CC(/C=C/c3ccccc3O)=NN2c2cccc(S(=O)(=O)O)c2)N1c1nc2ccccc2s1 (stereo unspecified),,50.5 µM,42.9 µM,42 µM,,,,,,,
Cc1ccc(Nc2[nH]c(=O)[nH]c(=O)c2C)cc1Cl,72.3 µM,> 100 µM,> 100 µM,> 100 µM,,,,,,,
Cc1[nH]n(C(=N)N)c(=O)c1CCO,> 100 µM,> 100 µM,> 100 µM,> 100 µM,,,,,,,
CCCCCCCNC(P(=O)(O)O)P(=O)(O)O,> 100 µM,> 100 µM,> 100 µM,> 100 µM,,,,,,,
COC(=O)c1ccc(NCc2c(O)ccc(O)c2Br)cc1Cl,35 µM,> 100 µM,25 µM,83.8 µM,,,,,,,
COc1cccc(C2ON=C(c3ccccc3)N2C23CC4CC(CC(C4)C2)C3)c1 (stereo unspecified),> 10 µM,> 10 µM,> 10 µM,> 10 µM,,,,,,,
CN(C)c1ccc(-c2c(C#N)c(O)n(NS(=O)(=O)c3ccccc3)c(=O)c2C#N)cc1,,> 100 µM,> 100 µM,> 100 µM,,,,,,,
COc1cc(/C=C/c2nc(N)nnc2C)cc(OC)c1OC,> 72.6 µM,> 71.6 µM,> 100 µM,> 59.8 µM,,,,,,,
COc1cc(C(=O)C2C(=O)c3ccccc3C2C2(O)c3ccccc3CC2C(O)c2cc(OC)c(OC)c(OC)c2)cc(OC)c1OC (stereo unspecified),> 100 µM,> 100 µM,> 100 µM,> 100 µM,,,,,,,
